Laboratory results taken from US20260042764A1, “COMPOSITIONS AND METHODS FOR INHIBITION OF KRAS” (TheRas, Inc., priority 2022, published 2026).

Columns and labels:
[1] = molecular target: T1, Avi-KRAS G12D (1-169) GppNHp/RAF1 RBD-3xFLAG (52-151) (Homo sapiens, UniProt P01116, G12D); assay: Raf1-KRAS G12D-GppNHP disruption HTRF assay (Biological Example 1); format: binding; settings: KRAS G12D-GppNHp/RAF1 RBD HTRF
T1 construct: Avi-KRAS G12D (1-169)
In short: (§1)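 Compound disruption of KRAS-GppNHp/RAF1 RBD binding read by HTRF after two sequential 1 h room-temperature incubations (protein mix, then detection reagents), shaken at 700 rpm. Buffer Tris pH 7.5 with MgCl2, BSA, Tween and 10% DMSO; results given as percent activity relative to DMSO (100%).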

[2] = molecular target: T2, Avi-KRAS G12R (1-169) GppNHp/RAF1 RBD-3xFLAG (52-151) (Homo sapiens, UniProt P01116, G12R); assay: Raf1-KRAS G12R-GppNHP disruption HTRF assay (Biological Example 1); format: binding; settings: KRAS G12R-GppNHp/RAF1 RBD HTRF
T2 construct: Avi-KRAS G12R (1-169)
In short: as §1

[3] = molecular target: T3, Avi-KRAS G12V (1-169) GppNHp/RAF1 RBD-3xFLAG (52-151) (Homo sapiens, UniProt P01116, G12V); assay: Raf1-KRAS G12V-GppNHP disruption HTRF assay (Biological Example 1); format: binding; settings: KRAS G12V-GppNHp/RAF1 RBD HTRF
T3 construct: Avi-KRAS G12V (1-169)
In short: as §1

[4] = molecular target: T4, Avi-KRAS WT (1-169) GppNHp/RAF1 RBD-3xFLAG (52-151) (Homo sapiens, UniProt P01116); assay: Raf1-KRAS WT-GppNHP disruption HTRF assay (Biological Example 1); format: binding; settings: KRAS WT-GppNHp/RAF1 RBD HTRF
T4 construct: Avi-KRAS WT (1-169)
In short: as §1

GP2d cells (KRAS G12D) = assay: Cell-based pERK HTRF assay in GP2d cell (Biological Example 2); settings: GP2d (KRAS G12D) cells, pERK HTRF
In short: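 Phospho-ERK in lysed cells was detected by HTRF using Eu cryptate and d2 antibodies, read between 4 and 24 h at room temperature. Prior to lysis, KRAS G12D GP2d cells, seeded the day before in DMEM with 10% FBS, were exposed to compounds for 60 min. Compounds were tested as 9-point half-log curves from 1 μM or 100 nM top, with 0.25% DMSO.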

SW620 cells (KRAS G12V) = assay: Cell-based pERK HTRF assay in SW620 cell (Biological Example 4); settings: pERK HTRF
In short: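 SW620 (KRAS G12V) cells seeded at 3×10^4/well in RPMI, 10% FBS, then treated next day for 4 h with a 9-point half-log series from 1 μM top (0.25% DMSO). Lysates analyzed for pERK by HTRF (Eu cryptate/d2 antibodies, 4–24 h at room temperature), excitation 320 nm, emission 615 nm.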

[5] = Homo sapiens, SW-620, SW620 (KRAS G12V) cells

T4 sequence (P01116 1-169 isoform P01116-2): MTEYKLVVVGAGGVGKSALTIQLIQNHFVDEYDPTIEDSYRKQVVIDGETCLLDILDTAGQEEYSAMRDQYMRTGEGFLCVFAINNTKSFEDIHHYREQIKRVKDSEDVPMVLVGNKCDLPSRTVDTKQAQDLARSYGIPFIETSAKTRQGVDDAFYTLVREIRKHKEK
T3 sequence (P01116 1-169 isoform P01116-2 G12V): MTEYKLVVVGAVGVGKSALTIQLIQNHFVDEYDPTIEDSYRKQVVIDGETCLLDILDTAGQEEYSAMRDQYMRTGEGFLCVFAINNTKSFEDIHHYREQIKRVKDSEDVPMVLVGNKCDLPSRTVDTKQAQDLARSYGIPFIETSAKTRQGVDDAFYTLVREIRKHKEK
T1 sequence (P01116 1-169 isoform P01116-2 G12D): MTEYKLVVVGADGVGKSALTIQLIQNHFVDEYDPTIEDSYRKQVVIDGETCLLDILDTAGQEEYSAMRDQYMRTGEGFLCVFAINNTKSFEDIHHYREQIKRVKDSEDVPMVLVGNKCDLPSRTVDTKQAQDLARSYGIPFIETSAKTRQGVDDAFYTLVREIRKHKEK
T2 sequence (P01116 1-169 isoform P01116-2 G12R): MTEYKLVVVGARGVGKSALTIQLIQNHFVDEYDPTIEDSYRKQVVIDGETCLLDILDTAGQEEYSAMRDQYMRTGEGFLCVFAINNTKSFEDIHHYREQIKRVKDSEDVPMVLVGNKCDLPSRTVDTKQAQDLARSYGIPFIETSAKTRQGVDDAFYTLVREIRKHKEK

SMILES | IC50 [1] | IC50 [2] | IC50 [3] | IC50 [4] | IC50 (GP2d cells (KRAS G12D); GP2d) | IC50 (SW620 cells (KRAS G12V); [5]) | IC50 (GP2d cells (KRAS G12D)) | IC50 (SW620 cells (KRAS G12V); SW620 (KRAS G12V) cells)
CCC(=O)N1C[C@@H](N(C)c2nc(OC[C@@]34CCCN3C[C@H](F)C4)nc3c(F)c(-c4ccc(F)c5sc(N)c(C#N)c45)c(C(F)(F)F)cc23)C[C@@H]1C [Compound 435] | 100 to 1000 nM | 100 to 1000 nM | 100 to 1000 nM | 100 to 1000 nM | < 100 nM | < 100 nM | – | –
CC(C)C(=O)N1C[C@@H](N(C)c2nc(OC[C@@]34CCCN3C[C@H](F)C4)nc3c(F)c(-c4ccc(F)c5sc(N)c(C#N)c45)c(C(F)(F)F)cc23)C[C@@H]1C [Compound 436] | 1000 to 10000 nM | 100 to 1000 nM | 1000 to 10000 nM | 1000 to 10000 nM | < 100 nM | < 100 nM | – | –
C[C@H]1C[C@H](N(C)c2nc(OC[C@@]34CCCN3C[C@H](F)C4)nc3c(F)c(-c4ccc(F)c5sc(N)c(C#N)c45)c(C(F)(F)F)cc23)CN1C(=O)C1CC1 [Compound 437] | 100 to 1000 nM | 100 to 1000 nM | 100 to 1000 nM | 100 to 1000 nM | < 100 nM | < 100 nM | – | –
CC(=O)N1C2CCC1CN(c1nc(OC[C@@]34CCCN3C[C@H](F)C4)nc3c(F)c(-c4ccc(F)c5sc(N)c(C#N)c45)c(C(F)(F)F)cc13)C2 [Compound 438] | 100 to 1000 nM | 100 to 1000 nM | 1000 to 10000 nM | 100 to 1000 nM | < 100 nM | < 100 nM | – | –
N#Cc1c(N)sc2c(F)ccc(-c3c(C(F)(F)F)cc4c(N5CC6CCC(C5)N6C(=O)C5CC5)nc(OC[C@@]56CCCN5C[C@H](F)C6)nc4c3F)c12 [Compound 439] | 100 to 1000 nM | 1000 to 10000 nM | 1000 to 10000 nM | 1000 to 10000 nM | < 100 nM | < 100 nM | – | –
CN1C[C@H](N(C)c2nc(OC[C@@]34CCCN3C[C@H](F)C4)nc3c(F)c(-c4ccc(F)c5sc(N)c(C#N)c45)c(C(F)(F)F)cc23)CCC1=O [Compound 441] | 1000 to 10000 nM | 1000 to 10000 nM | 1000 to 10000 nM | 100 to 1000 nM | < 100 nM | < 100 nM | – | –
C[C@@H]1C[C@H](N(C)c2nc(OC[C@@]34CCCN3C[C@H](F)C4)nc3c(F)c(-c4ccc(F)c5sc(N)c(C#N)c45)c(C(F)(F)F)cc23)CN1C(=O)C1CC1 [Compound 443] | 100 to 1000 nM | 100 to 1000 nM | 100 to 1000 nM | 100 to 1000 nM | < 100 nM | < 100 nM | – | –
CCC(=O)N1CC(N(C)c2nc(OCC34CCCN3CC(F)C4)nc3c(F)c(-c4ccc(F)c5sc(N)c(C#N)c45)c(C(F)(F)F)cc23)CC1C (stereo not drawn) [Compound 444] | 100 to 1000 nM | 1000 to 10000 nM | 1000 to 10000 nM | 100 to 1000 nM | – | – | < 100 nM | < 100 nM
CN(C)C(=O)c1nc2c(s1)CCN(c1nc(OCC34CCCN3CC(F)C4)nc3c(F)c(-c4ccc(F)c5sc(N)c(C#N)c45)c(C(F)(F)F)cc13)C2 (stereo not drawn) [Compound 445] | 1000 to 10000 nM | > 10000 nM | > 10000 nM | > 10000 nM | > 1000 nM | 100 to 1000 nM | – | –
CCN(c1nc(OC[C@@]23CCCN2C[C@H](F)C3)nc2c(F)c(-c3ccc(F)c4sc(N)c(C#N)c34)c(C(F)(F)F)cc12)[C@H]1C[C@@H](C)N(C(C)=O)C1 [Compound 446] | < 100 nM | 100 to 1000 nM | 100 to 1000 nM | 100 to 1000 nM | < 100 nM | < 100 nM | – | –
CC(C)C(=O)N1C[C@@H](N(C)c2nc(OC[C@@]34CCCN3C[C@H](F)C4)nc3c(F)c(-c4ccc(F)c5sc(N)c(C#N)c45)c(C(F)(F)F)cc23)C[C@H]1C [Compound 448] | 100 to 1000 nM | 1000 to 10000 nM | 1000 to 10000 nM | 100 to 1000 nM | < 100 nM | 100 to 1000 nM | – | –
N#Cc1c(N)sc2c(F)ccc(-c3c(C(F)(F)F)cc4c(N5CCc6[nH]ncc6C5)nc(OCC56CCCN5CC(F)C6)nc4c3F)c12 (stereo not drawn) [Compound 449] | 1000 to 10000 nM | 1000 to 10000 nM | 1000 to 10000 nM | 1000 to 10000 nM | 100 to 1000 nM | 100 to 1000 nM | – | –
CN(c1nc(OC[C@@]23CCCN2C[C@H](F)C3)nc2c(F)c(-c3ccc(F)c4sc(N)c(C#N)c34)c(C(F)(F)F)cc12)[C@@H]1C[C@@H]2COC(=O)N2C1 [Compound 450] | 100 to 1000 nM | 100 to 1000 nM | 100 to 1000 nM | 100 to 1000 nM | < 100 nM | < 100 nM | – | –
CC(=O)N1C[C@@H]2CCCN(c3nc(OC[C@@]45CCCN4C[C@H](F)C5)nc4c(F)c(-c5ccc(F)c6sc(N)c(C#N)c56)c(C(F)(F)F)cc34)[C@@H]2C1 [Compound 451] | 100 to 1000 nM | 1000 to 10000 nM | 1000 to 10000 nM | 100 to 1000 nM | < 100 nM | 100 to 1000 nM | – | –
CN(c1nc(OC[C@@]23CCCN2C[C@H](F)C3)nc2c(F)c(-c3ccc(F)c4sc(N)c(C#N)c34)c(C(F)(F)F)cc12)[C@@H]1CC(=O)N(Cc2ccccc2)C1 [Compound 452] | 100 to 1000 nM | 100 to 1000 nM | 100 to 1000 nM | 100 to 1000 nM | < 100 nM | 100 to 1000 nM | – | –
CC(=O)N1C[C@H]2CCCN(c3nc(OC[C@@]45CCCN4C[C@H](F)C5)nc4c(F)c(-c5ccc(F)c6sc(N)c(C#N)c56)c(C(F)(F)F)cc34)[C@H]2C1 [Compound 453] | 1000 to 10000 nM | 1000 to 10000 nM | 1000 to 10000 nM | 1000 to 10000 nM | < 100 nM | < 100 nM | – | –
CC(=O)N1C[C@@H](N(C)c2nc(OC[C@@]34CCCN3C[C@H](F)C4)nc3c(F)c(-c4ccc(F)c5sc(N)c(C#N)c45)c(C(F)(F)F)cc23)C[C@@H]1CF [Compound 454] | 100 to 1000 nM | 100 to 1000 nM | 100 to 1000 nM | 100 to 1000 nM | < 100 nM | < 100 nM | – | –
CC(=O)N1C[C@@H]2CC[C@H]1CN2c1nc(OC[C@@]23CCCN2C[C@H](F)C3)nc2c(F)c(-c3ccc(F)c4sc(N)c(C#N)c34)c(C(F)(F)F)cc12 [Compound 455] | 100 to 1000 nM | 100 to 1000 nM | 1000 to 10000 nM | 100 to 1000 nM | < 100 nM | 100 to 1000 nM | – | –
